From patent EP4725956A1, “MODIFIED POLYPEPTIDE AND USE THEREOF IN FIELD OF ANALGESIA” (Nanjing Anji Biotechnology Co., Ltd., priority 2023, dated 2024)
Positions of bridges follow the written chain, without caps; N, C: chain ends. Non-standard residues stand in square brackets, D forms with d. Residues, ends and D or L forms follow the SMILES beside them.

How the values were obtained:
[1] = test system: rat paclitaxel-induced chronic chemotherapy pain model; test: Rat paclitaxel chemotherapy pain model, same dose (Example 5); assay type: in vivo; settings: 1 mg/kg s.c., four rounds of treatment
Procedure: Male SPF (Specific Pathogen Free) SD rats weighing 180-200 g (Shanghai Institute of Planned Parenthood Research, Experimental Animal Department) were used. On the day of model induction, rats were weighed, and baseline mechanical pain thresholds were measured. Animals with large differences in body weight or pain threshold were excluded, and the remaining rats were subjected to the experimental protocol. Paclitaxel powder was dissolved in olive oil to 1 mg/mL. Each rat received an intraperitoneal injection of 2 mg/kg per dose. Four injections were administered on days 1, 3, 5, and 7. Rats in the negative control or vehicle control group received injections of the solvent used to dissolve paclitaxel. […] The blank group in Table 4 represents rats without pain modeling, and the model group represents rats with pain modeling but no drug treatment. On days 1, 3, 5, and 12, drugs were administered at fixed times. On days 1, 3, and 5, mechanical pain thresholds of the right hind paw at the corresponding time were measured at 1 h, 2.5 h, 4 h, and 5.5 h after dosing using a blunt probe. On day 12, mechanical pain thresholds were measured at 4 h and 7 h after dosing. […] AJ003-36 and AJ003-40 were thus identified as candidate molecules for further study. Paclitaxel is a widely used small-molecule chemotherapy drug that, while effective against tumors, can induce neuropathic pain in many cancer patients due to neurotoxicity. The chronic chemotherapy pain model induced in male SD rats via multiple low-dose intraperitoneal injections of paclitaxel simulates clinical chemotherapy-induced neuropathic pain. Using this model, the analgesic effects of five modified peptides, the parent peptide AJ003, and the positive control pregabalin were evaluated. […] Table 4 Dosing Scheme for Screening Analgesic Activity of Selected Modified Peptides at the Same Dose in the Paclitaxel Chemotherapy Pain Model

[2] = test system: rat paclitaxel-induced chronic chemotherapy pain model; test: Rat paclitaxel chemotherapy pain model, different doses (Example 6); assay type: in vivo; settings: 1 mg/kg s.c., five rounds of treatment
Procedure: Male SPF (Specific Pathogen Free) SD rats weighing 180-200 g (Shanghai Institute of Planned Parenthood Research, Experimental Animal Department) were purchased and allowed to acclimate for approximately one week. On the day of model induction, rats were weighed, and baseline mechanical pain thresholds were measured. Animals with large differences in body weight or pain threshold were excluded, and the remaining rats were subjected to the experimental protocol. Paclitaxel powder was dissolved in olive oil to 1 mg/mL. Each rat received an intraperitoneal injection of 2 mg/kg per dose. Four injections were administered on days 1, 3, 5, and 7. Rats in the negative control or vehicle control group received injections of the solvent used to dissolve paclitaxel. […] Starting from day 15 after model induction, drugs were administered daily for consecutive days. On days 1, 4, 7, 12, and 14 of treatment, mechanical pain thresholds of the right hind paw at the corresponding time were measured at 2 h, 4 h, 6 h, and 8 h after dosing using a blunt probe. […]. […] Table 5 Dosing Scheme for Screening Analgesic Activity of Selected Modified Peptides at Different Doses in the Paclitaxel Chemotherapy Pain Model

[3] = target: α7 nAChR (Homo sapiens, UniProt P36544); test: BLI (biolayer interferometry) affinity of peptides to α7 nAChR; assay type: binding; parameters: inferred from the 'similar' procedure on NTA sensors; settings: NTA sensor, α7 nAChR 20 µg/mL, peptide 1.372-1000 nM in PBS
Chain of α7 nAChR (P36544 23-502): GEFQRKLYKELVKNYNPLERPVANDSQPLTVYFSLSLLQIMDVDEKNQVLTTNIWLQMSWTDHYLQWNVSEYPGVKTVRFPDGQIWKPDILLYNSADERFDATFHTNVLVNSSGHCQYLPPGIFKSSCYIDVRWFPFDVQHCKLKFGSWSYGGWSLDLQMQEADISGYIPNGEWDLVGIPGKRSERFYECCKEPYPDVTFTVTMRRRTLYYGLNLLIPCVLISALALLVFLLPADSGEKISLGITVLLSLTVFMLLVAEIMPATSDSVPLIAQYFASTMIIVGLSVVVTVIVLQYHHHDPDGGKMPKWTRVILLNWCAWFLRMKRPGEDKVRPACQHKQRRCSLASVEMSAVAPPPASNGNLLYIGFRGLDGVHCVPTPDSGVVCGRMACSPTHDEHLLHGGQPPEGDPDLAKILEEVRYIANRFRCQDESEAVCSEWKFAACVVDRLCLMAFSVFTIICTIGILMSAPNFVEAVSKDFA
In short: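 Target protein immobilised on NTA biosensors from PBS at 5 µg/mL (α9) or 20 µg/mL (α7). Peptides run in PBS as threefold series from 1000 nM to 1.372 nM with a PBS blank, 5-minute association and 5-minute dissociation; KD from fitted ka and kd.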

[4] = test system: mouse diabetic neuropathic pain model; test: Mouse diabetic neuropathic pain model (Example 10); assay type: in vivo; settings: 2 mg/kg s.c. (AJ003; AJ003-36 medium dose)
Procedure: Except for the control group, the remaining male C57 mice (Hangzhou Ziyuan Experimental Animal Technology Co., Ltd.) were continuously fed a high-sugar, high-fat diet for approximately ten weeks. For the model group, mice were fasted overnight, and streptozotocin (STZ) (Sann Chemical Technology (Shanghai) Co., Ltd.) was dissolved in sodium citrate-citric acid buffer solution and intraperitoneally injected at a dose of 70 mg/kg. About two weeks after STZ injection, the mechanical pain threshold of mice was measured. Mice were placed on a perforated wire mesh for adaptation, and the plantar surface of the right hind paw was vertically stimulated with a blunt needle. Pain threshold data were collected using a biosignal acquisition system. Each mouse was measured three times, and the average value was calculated. Mice were then randomly assigned to groups based on their pain thresholds for drug administration.
Day 1 of dosing: Drug administration was performed according to Table 9. Mechanical pain thresholds of the plantar surface were measured at 0 h, 2 h, 4 h, 6 h, and 8 h after administration.

## CC(C)C[C@H](NC(=O)[C@@H](NC(=O)[C@H]1CSSC[C@H](NC(=O)[C@H](CO)NC(=O)CN)C(=O)N[C@@H](CO)C(=O)N[C@@H]([C@@H](C)O)C(=O)N2CCC[C@H]2C(=O)N2CCC[C@H]2C(=O)N[C@@H](CO)C(=O)N1)C(C)C)C(=O)N[C@@H](Cc1ccc(O)cc1)C(=O)N[C@@H](CO)C(=O)O [AJ003, GSCSTPPS-(D-Cys)-VLYS (disulfide bond between positions 3 and 9)] (H-GSCSTPPS[dC]VLYS-OH; disulfide 3-9)
[1]; beyond 4 h after dosing
  analgesic activity compared with the model group (mechanical pain threshold): no significant analgesic effect
[1]; within 4 h after dosing
  analgesic activity compared with the model group (mechanical pain threshold): significant analgesic activity
[2]; beyond 4 h after dosing
  analgesic activity compared with the model group (mechanical pain threshold): no significant effect
[2]; within 4 h after dosing
  analgesic activity compared with the model group (mechanical pain threshold): significant analgesic activity
[3]
  Kd: 223 nM
[4]; Day 1 of dosing, 2 h and 4 h
  analgesic activity compared with the model group (mechanical pain threshold): significant analgesic activity
[4]; Day 1 of dosing, 6 h and 8 h
  analgesic activity compared with the model group (mechanical pain threshold): did not show significant differences
[4]; Day 4 of dosing, 2 h and 4 h
  analgesic activity compared with the model group (mechanical pain threshold): significant analgesic activity
[4]; Day 4 of dosing, 6 h and 8 h
  analgesic activity compared with the model group (mechanical pain threshold): no significant difference
[4]; Day 8 of dosing, 2 h and 4 h
  analgesic activity compared with the model group (mechanical pain threshold): significant analgesic activity
[4]; Day 8 of dosing, 6 h and 8 h
  analgesic activity compared with the model group (mechanical pain threshold): no significant difference
[4]; Day 14 of dosing, 2 h and 4 h
  analgesic activity compared with the model group (mechanical pain threshold): significant analgesic activity
[4]; Day 14 of dosing, 6 h and 8 h
  analgesic activity compared with the model group (mechanical pain threshold): did not show significant differences
